According to patent publication US7375088B2, “Polyene polyketides, processes for their production and their use as a pharmaceutical” (Thallion Pharmaceuticals Inc., priority 2003, dated 2008):
Converted amounts (≈) assume the structure as drawn. Where two headings read alike, the source gives them in different places.

Columns and labels:
[1] = system: 60 different human tumor cell lines; experiment: NCI in vitro antiproliferative screen, 60 human tumor cell lines (SRB, GI50); format: cell-based
Experimental: (§1) In Vitro antipoliferative study of Compound 2a was performed by the National Cancer Institute (National Institutes of Health, Bethesda, Md., USA) against a panel of cancer cell lines in order to determine the concentrations needed to obtain a 50% inhibition of cell proliferation (IC50). The operation of this unique screen utilizes 60 different human tumor cell lines, representing leukemia, melanoma, and cancers of the lung, colon, brain, ovary, breast prostate and kidney. Compound 2(a) was provided as a lyophilized powder with an estimated purity of 90+%. The compound was stored at −20° C. until day of use.
(§2) The human tumor cell lines of the cancer-screening panel were grown in RPMI 1640 medium containing 5% fetal bovine serum and 2 mM L-glutamine. For a typical screening experiment, cells were inoculated into 96 well microtiter plates in 100 μl at plating densities ranging from 5000 to 40,000 cells/well depending on the doubling time of individual cell lines (Table 8). After cell inoculation, the microtiter plates were incubated at 37° C., under 5% CO2, 95% air and 100% relative humidity for 24 hours prior to addition of the experimental drugs.
(§3) After 24 hours, two plates of each cell line were fixed in situ with TCA, to represent a measurement of the cell population for each cell line at the time of drug addition (Tz). Compound 2(a) was solubilized in dimethyl sulfoxide at 400-fold the desired final maximum test concentration and stored frozen prior to use. At the time of drug addition, an aliquot of frozen concentrate was thawed and diluted to twice the desired final maximum test concentration with complete medium containing 50 μg/ml gentamicin. Additional four, serial dilutions were made to provide a total of five drug concentrations plus control. Aliquots of 100 μl of these different drug dilutions were added to the appropriate microtiter wells already containing 100 μl of medium, resulting in the required final drug concentrations (2.5×10^−5 M to 2.5×10^−9 M).
(§4) Following drug addition, the plates were incubated for an additional 48 hours at 37° C., 5% CO2, 95% air, and 100% relative humidity. For adherent cells, the assay was terminated by the addition of cold TCA. Cells were fixed in situ by the gentle addition of 50 μl of cold 50% (w/v) TCA (final concentration, 10% TCA) and incubation for 60 minutes at 4° C. The supernatant was discarded, and the plates were washed five times with tap water and air-dried. Sulforhodamine B (SRB) solution (100 μl) at 0.4% (w/v) in 1% acetic acid was added to each well, and plates were incubated for 10 minutes at room temperature. After staining, unbound dye was removed by washing five times with 1% acetic acid and the plates were air-dried. Bound stain was subsequently solubilized with 10 mM trizma base, and the absorbance was read on an automated plate reader at a wavelength of 515 nm. For suspension cells, the methodology was the same except that the assay was terminated by fixing settled cells at the bottom of the wells by gently adding 50 μl of 80% TCA (final concentration, 16% TCA).
(§5) The growth inhibitory power of compound 2(a) was measured by NCl utilizing the GI50 value, rather than the classical IC50 value. The GI50 value emphasizes the correction for the cell count at time zero and, using the seven adsorbance measurements [time zero (Tz), control growth (C), and the test growth in the presence of drug at each of the five concentration levels (Ti)], GI50 is calculated as [(Ti−Tz)/(C−Tz)×100=−50. which is the drug concentration resulting in a 50% reduction in the net protein increase (as measured by SRB staining) in control cells during the drug incubation.

[2] = system: Candida glabrata LSPQ 0250; experiment: MIC broth microdilution assay; settings: Nakaseomyces glabratus
Experimental: (§6) Test compound preparation: The test article was prepared as 100× stock solutions in DMSO, with concentrations ranging from 3.2 mg/ml to 0.0625 mg/ml (a two-fold dilution series over 10 points). The first dilution (3.2 mg/ml) was prepared by resuspending 0.5 mg of each test article in 156.25 μl of DMSO. The stock is then serially diluted by two-fold increments to obtain the desired concentration range.
(§7) Inoculum preparation: For fungal strains, the inoculum was prepared as follows. From an overnight culture in Yeast Media broth, cell density was adjusted in 0.85% saline to 0.5 McFarland. This procedure yielded a stock suspension of about 5×10^6 cells/ml. Following thorough vortexing, a working suspension was prepared by diluting the stock 1:50 in RPMI 1640, and then further diluting it 1:20 with RPMI 1640 to obtain the 2× test inoculum (about 5×10^3 cells/ml). For filamentous fungi, the inoculum was prepared as follows. […]
(§8) 50 μl of the final cell dilution (yeast, filamentous fungi or bacteria) of each indicator strain was added to each corresponding well of the microplate containing 50 μl of diluted drug or media alone. […] MIC readings were determined at 24 and 48 hrs for the Candida and Aspergillus species, and at 48 and 72 hrs for Cryptococcus neoformans. MIC readout for each indicator was determined as the lowest concentration of test compound resulting in total absence of growth.

[3] = system: HOP92/non-small cell lung carcinoma; experiment: NCI in vitro antiproliferative screen (SRB, GI50); format: cell-based, human
Experimental: as §1, §2, §3, §4, §5

SN12C/renal carcinoma = experiment: NCI in vitro antiproliferative screen (SRB, GI50); format: cell-based, human
Experimental: as §1, §2, §3, §4, §5

HCC2998/colon carcinoma = experiment: NCI in vitro antiproliferative screen (SRB, GI50); format: cell-based, human
Experimental: as §1, §2, §3, §4, §5

Candida krusei LSPQ 0309 = experiment: MIC broth microdilution assay; settings: Pichia kudriavzevii
Experimental: as §6, §7, §8

## CC(C=CCCC=CC=CC=CC=CC(=O)NC1=C(O)CCC1=O)C(O)C(C)C(O)C=CC=CC=CC=CC=CCC(OC1OC(C)C(O)C(O)C1O)C(C)C(=O)CC(O)CC(O)CC(O)C=CCC(O)CC(O)CC(O)CC(O)C=CCC(O)CC(O)CCCN (stereo not shown) [Compound 2(a), 56-Amino-15,17,33,35,37,41,43,45,47,51,53-undecahydroxy-14,16,30-trimethyl-31-oxo-29-(3,4,5-trihydroxy-6-methyl-tetrahydro-pyran-2-yloxy)-hexapentaconta-2,4,6,8,12,18,20,22,24,26,38,48-dodecaenoic acid (2-hydroxy-5-oxo-cyclopent-1-enyl)-amide]
[1]; 786-0, 48 h, 786-0, Renal cancer, read-out: GI50
  GI50: 3.07 µM
[1]; 48 h, MDA-MB-, Breast cancer
  GI50: 3.38 µM
[1]; 48 h, PC-3, Prostate cancer, read-out: GI50
  GI50: 2.66 µM
[1]; 48 h, all cell lines of the NCI screening panel, 48 hours drug incubation
  GI50: < 10 µM
[1]; A498, 48 h, A498, Renal cancer, read-out: GI50
  GI50: 4.82 µM
[1]; A549, 48 h, A549/ATCC, Non-small cell lung cancer, read-out: GI50
  GI50: 4.09 µM
[1]; ACHN, 48 h, ACHN, Renal cancer, read-out: GI50
  GI50: 2.96 µM
[1]; BT-549, 48 h, BT-549, Breast cancer, read-out: GI50
  GI50: 4.59 µM
[1]; CAKI-1, 48 h, CAKI-1, Renal cancer, read-out: GI50
  GI50: 2.99 µM
[1]; COLO 205, 48 h, COLO 205, Colon cancer, read-out: GI50
  GI50: 5 µM
[1]; DU-145, 48 h, DU-145, Prostate cancer, read-out: GI50
  GI50: 3.78 µM
[1]; EKVX, 48 h, EKVX, Non-small cell lung cancer, read-out: GI50
  GI50: 5.87 µM
[1]; HCT-15, 48 h, HCT-15, Colon cancer, read-out: GI50
  GI50: 3.25 µM
[1]; HCT-116, 48 h, HCT-116, Colon cancer, read-out: GI50
  GI50: 4.18 µM
[1]; HOP-62, 48 h, HOP-62, Non-small cell lung cancer, read-out: GI50
  GI50: 6.83 µM
[1]; HT-29, 48 h, HT29, Colon cancer, read-out: GI50
  GI50: 6.36 µM
[1]; IGROV-1, 48 h, IGROV1, Ovarian cancer, read-out: GI50
  GI50: 2.95 µM
[1]; K562, 48 h, K-562, Leukemia, read-out: GI50
  GI50: 9.18 µM
[1]; KM12, 48 h, KM12, Colon cancer, read-out: GI50
  GI50: 2.76 µM
[1]; LOX IMVI, 48 h, LOX IMVI, Melanoma, read-out: GI50
  GI50: 3.73 µM
[1]; M14, 48 h, M14, Melanoma, read-out: GI50
  GI50: 4.15 µM
[1]; MCF7, 48 h, MCF7, Breast cancer, read-out: GI50
  GI50: 4.22 µM
[1]; MDA-MB-435, 48 h, MDA-MB-435, Breast cancer, read-out: GI50
  GI50: 3.26 µM
[1]; MOLT-4, 48 h, MOLT-4, Leukemia, read-out: GI50
  GI50: 5.57 µM
[1]; Malme-3M, 48 h, MALME-3M, Melanoma, read-out: GI50
  GI50: 2.4 µM
[1]; NCI-H23, 48 h, NCI-H23, Non-small cell lung cancer, read-out: GI50
  GI50: 4.25 µM
[1]; NCI-H226, 48 h, NCI-H226, Non-small cell lung cancer, read-out: GI50
  GI50: 3.1 µM
[1]; NCI-H322M, Non-small cell lung cancer, 48 h, read-out: GI50
  GI50: 3.48 µM
[1]; NCI-H460, 48 h, NCI-H460, Non-small cell lung cancer, read-out: GI50
  GI50: 3.83 µM
[1]; NCI-H522, 48 h, NCI-H522, Non-small cell lung cancer, read-out: GI50
  GI50: 2.8 µM
[1]; NCI/ADR-RES, 48 h, NCI/ADR-RES, Breast cancer, read-out: GI50
  GI50: 4.76 µM
[1]; OVCAR-3, 48 h, OVCAR-3, Ovarian cancer, read-out: GI50
  GI50: 3.4 µM
[1]; OVCAR-4, 48 h, OVCAR-4, Ovarian cancer, read-out: GI50
  GI50: 4.48 µM
[1]; OVCAR-5, 48 h, OVCAR-5, Ovarian cancer, read-out: GI50
  GI50: 4 µM
[1]; OVCAR-8, 48 h, OVCAR-8, Ovarian cancer, read-out: GI50
  GI50: 4.34 µM
[1]; RXF 393, 48 h, RXF 393, Renal cancer, read-out: GI50
  GI50: 1.2 µM
[1]; SF-268, 48 h, SF-268, CNS cancer, read-out: GI50
  GI50: 3.64 µM
[1]; SF-295, 48 h, SF-295, CNS cancer, read-out: GI50
  GI50: 3.91 µM
[1]; SK-MEL-2, 48 h, SK-MEL-2, Melanoma, read-out: GI50
  GI50: 4.34 µM
[1]; SK-MEL-5, 48 h, SK-MEL-5, Melanoma, read-out: GI50
  GI50: 4.16 µM
[1]; SK-MEL-28, 48 h, SK-MEL-28, Melanoma, read-out: GI50
  GI50: 6.75 µM
[1]; SK-OV-3, 48 h, SK-OV-3, Ovarian cancer, read-out: GI50
  GI50: 7.94 µM
[1]; SNB-19, 48 h, SNB-19, CNS cancer, read-out: GI50
  GI50: 5.58 µM
[1]; SNB-75, 48 h, SNB-75, CNS cancer, read-out: GI50
  GI50: 3.87 µM
[1]; SW-620, 48 h, SW-620, Colon cancer, read-out: GI50
  GI50: 5.35 µM
[1]; T47D, 48 h, T-47D, Breast cancer, read-out: GI50
  GI50: 6 µM
[1]; TK-10, 48 h, TK-10, Renal cancer, read-out: GI50
  GI50: 3.32 µM
[1]; U-251, 48 h, U251, CNS cancer, read-out: GI50
  GI50: 3.65 µM
[1]; UACC-62, 48 h, UACC-62, Melanoma, read-out: GI50
  GI50: 2.68 µM
[1]; UACC-257, 48 h, UACC-257, Melanoma, read-out: GI50
  GI50: 3.74 µM
[1]; UO-31, 48 h, UO-31, Renal cancer, read-out: GI50
  GI50: 3.65 µM
[2]; LSPQ0250, 24 h
  MIC: 4 µg/mL (≈ 3.08 µM)
[2]; LSPQ0250, 48 h
  MIC: 8 µg/mL (≈ 6.17 µM)
[3]; HOP92/non-small cell lung carcinoma, 48 hours
  GI50 level: nanomolar or picomolar level
[3]; Homo sapiens, HOP-92, Non-small cell lung cancer, 48 h
  GI50: 0.0977 µM
SN12C/renal carcinoma; Homo sapiens, SN12C, Renal cancer, 48 h
  GI50: 0.138 µM
SN12C/renal carcinoma; SN12C/renal carcinoma, 48 hours
  GI50 level: nanomolar or picomolar level
HCC2998/colon carcinoma; HCC2998/colon carcinoma, 48 hours
  GI50 level: nanomolar or picomolar level
HCC2998/colon carcinoma; Homo sapiens, HCC-2998, Colon cancer, 48 h
  GI50: 0.0603 µM
Candida krusei LSPQ 0309; LSPQ0309, 24 h
  MIC: 8 µg/mL (≈ 6.17 µM)
Candida krusei LSPQ 0309; LSPQ0309, 48 h
  MIC: 8 µg/mL (≈ 6.17 µM)
